Measured values as given in patent publication US20150094321A1, “COMBINATION” (GlaxoSmithKline LLC, priority 2009, published 2015).
Like-named read-outs stand apart in the source and are kept apart here.

Experiments:
Format in all cases: cell-based, human
[1] = test system: BT-474-J4; test: Cell growth inhibition assay; details: BT-474-J4, breast, HER2+, PIK3CA K111N, single agent, read-out: IC50 Single Agent (mean +/- std)
Experimental: (§1) Human breast tumor lines. BT-474, HCC1419, HCC1937, HCC1954, HCC202, KPL-1, MDA-MB-157, MDA-MB-175-VII, MDA-MB-361, MDA-MB-453, SK-BR-3, SUM225PE, UACC893, and ZR-75-1; lung tumor line, CALU-3; and melanoma line, CHL-1, were from ATCC. Human breast tumor line JIMT-1 was from European Collection of Cell Cultures (UK). Human breast tumor lines SUM149PT, SUM190PT and SUM52PE were from Asterand. These lines were cultured in RPMI 1640 medium containing 10% fetal bovine serum (FBS). A head and neck tumor line, LICR LON HN5 (HN5), a gift from the Institute of Cancer Research, Surrey, U.K, was cultured in Dulbecco's modified Eagle medium (DMEM) containing 5% FBS; KPL-4 breast tumor cell line was kindly provided by Dr Junichi Kurebayashi (Kawasaki Medical School, Okayama, Japan) and cultured in DMEM containing 5% FBS. JIMT-1 is a line derived from a patient clinically resistant to trastuzumab (Herceptin®). BT-474-J4 is a single cell clone derived from a pool of BT-474 cells that were selected to grow in lapatinib to a concentration of 3 μM.
(§2) All cells were cultured for a minimum of 72 hours prior to cell plating. Cells were assayed in a 96-well tissue culture plate (NUNC 136102) of RPMI medium containing 10% FBS for all cells at 2,000 cells per well except KPL-4 and HN5 which were plated in DMEM containing 5% FBS at 500 cells per well. Approximately 24 hours after plating, cells were exposed to ten, two-fold or three-fold serial dilutions of compound or the combination of the two agents at a constant molar to molar ratio of 1:1 Compound A to Compound B in RPMI media containing 10% FBS or DMEM containing 5% FBS. Cells were incubated in the presence of compounds for 3 days. ATP levels were determined by adding Cell Titer Glo® (Promega) according to the manufacturer's protocol. Briefly, Cell Titer Glo® was added each plate, incubated for 20 minutes then luminescent signal was read on the SpectraMax L plate reader with a 0.5 sec integration time.
(§3) Inhibition of cell growth was estimated after treatment with compound or combination of compounds for three days and comparing the signal to cells treated with vehicle (DMSO). Cell growth was calculated relative to vehicle (DMSO) treated control wells. Concentration of compound that inhibits 50% of control cell growth (IC50) was interpolated using nonlinear regression with the equation, y=(A+(B−A)/(1+(C/x)̂D))), where A is the minimum response (ymin), B is the maximum response (ymax), C is the inflection point of the curve (EC50) and D is the Hill coefficient. […]

[2] = test system: JIMT-1; test: Cell growth inhibition assay; details: for IC50: Homo sapiens, JimT-1, breast, HER2+, PIK3CA C420R, single agent, read-out: IC50 Single Agent (mean +/- std); for sensitivity as single agents: JIMT-1
Experimental: as §1, §2, §3

[3] = test system: SUM225PE; test: Cell growth inhibition assay; details: breast, HER2+, WT, single agent, read-out: IC50 Single Agent (mean +/- std)
Experimental: as §1, §2, §3

[4] = test system: Calu6; test: Cell line proliferation study; details: Calu6, lung; for IC50: Homo sapiens, Calu-6, 72 hours, read-out: gIC50
Experimental: (§4) In a separate study, combination drug tests with Compounds A and B were conducted using a panel of cell lines from human colon cancers (n=26), lung cancers (n=15) and pancreatic cancers (n=6). Cell lines were obtained from commercial vendors (ATCC and DSMZ). Cell lines were grown in RPMI-1640 supplemented with 2 mM glutamine, 1 mM sodium pyruvate and 10% fetal bovine serum (except for Capan-1 and HuP-T4 which were grown with 20% fetal bovine serum) and maintained at 37° C. and 5% CO2 in a humid incubator. Assays were performed in 384 well microtiter plates with optimum seeding densities for each cell line.
(§5) The test compounds were prepared as 10 mM stocks in 100% DMSO. Further dilutions of the compounds were made in DMSO. Compound A was diluted horizontally in a separate 96 well microtiter plate in rows D-G using a 3-fold dilution series for 10 dilution points. Compound B was similarly diluted horizontally in a 96 well microtiter plate in rows B-E using a 3-fold dilution series for 10 dilution points.
(§6) The two compounds were combined using equal volumes from each drug plate into cell culture media. […] Both Compound A and Compound B were individually titrated in rows B and C (for Compound B) and rows F and G (for Compound A) of the merged drug plate.
(§7) A 1:10 dilution of the drugs was performed in cell culture media prior to addition to the cells.
(§8) The final concentration range for the test compounds was 250 to 0.013 nM for Compound A and 1000 to […] for Compound B. The positive control consisted of culture media with DMSO at 0.1% and cells. The negative control consisted of culture media with DMSO at 0.1%. The cell lines were incubated at 37° C., 5% CO2 in humid air for 72 hours. Cell proliferation was measured using the CellTiter Glo (Promega) reagent according to the manufacturer's protocol. The plates are treated with CellTiter Glo solution and are analyzed for RLU (relative light units) using a Molecular Devices SpectraMax M5 plate reader.
(§9) The percent intensity values were used in model 205 of XLfit (IDBS, Inc.) in Microsoft Excel to calculate gIC50 values using a 4 parameter logistical fit. The midpoint of the growth window (the gIC50) falls half way between the number of cells at the time of compound addition (T=0) and the growth of control cells treated with DMSO at 72 hrs. The number of cells at time zero (T0) is divided from the intensity value at the bottom of the response curve (Ymin) to generate a measure for cell death (Ymin/T0). A value below 1 for Ymin/T0 indicates stronger potency to induce cell death with the treatment when compared to higher values. […]

[5] = test system: DLD1; test: Cell line proliferation study; details: DLD1, colon; for IC50: Homo sapiens, DLD-1, 72 hours, read-out: gIC50
Experimental: as §4, §5, §6, §7, §8, §9

[6] = test system: NCIH2228; test: Cell line proliferation study; details: NCIH2228, lung; for IC50: Homo sapiens, NCI-H2228, 72 hours, read-out: gIC50
Experimental: as §4, §5, §6, §7, §8, §9

[7] = test system: NCIH23; test: Cell line proliferation study; details: NCIH23, lung; for IC50: Homo sapiens, NCI-H23, 72 hours, read-out: gIC50
Experimental: as §4, §5, §6, §7, §8, §9

[8] = test system: NCIH358; test: Cell line proliferation study; details: NCIH358, lung; for IC50: Homo sapiens, NCI-H358, 72 hours, read-out: gIC50
Experimental: as §4, §5, §6, §7, §8, §9

[9] = test system: RKO; test: Cell line proliferation study; details: colon; for IC50: Homo sapiens, 72 hours, read-out: gIC50
Experimental: as §4, §5, §6, §7, §8, §9

Structure (SMILES)	IC50 ([1]; Homo sapiens) [nM]	IC50 [2] [nM]	sensitivity as single agents [2]	IC50 ([3]; Homo sapiens) [nM]	Ymin/T0 [4]	IC50 [4] [nM]	Ymin/T0 [5]	IC50 [5] [nM]	IC50 [6] [nM]	Ymin/T0 [6]	IC50 [7] [nM]	Ymin/T0 [7]	IC50 [8] [nM]	Ymin/T0 [8]	IC50 [9] [nM]	Ymin/T0 [9]	IC50 [1] [nM]	IC50 [3] [nM]
CC(=O)Nc1cccc(-n2c(=O)n(C3CC3)c(=O)c3c(Nc4ccc(I)cc4F)n(C)c(=O)c(C)c32)c1 [Compound A, N-{3-[3-cyclopropyl-5-(2-fluoro-4-iodo-phenylamino)-6,8-dimethyl-2,4,7-trioxo-3,4,6,7-tetrahydro-2H-pyrido[4,3-d]pyrimidin-1-yl]phenyl}acetamide]	> 1000	> 1000	not sensitive	> 1000	15.0	53.1	397	342	> 250	39.7	> 250	36.3	17.3	10.7	77.8	24.44		
Cn1ncc(Cl)c1-c1cc(C(=O)N[C@H](CN)Cc2ccc(F)c(F)c2)oc1Cl [Compound B, N-{(1S)-2-amino-1-[(3,4-difluorophenyl)methyl]ethyl}-5-chloro-4-(4-chloro-1-methyl-1H-pyrazol-5-yl)-2-furancarboxamide]	271	> 1000	not sensitive	< 1000	56.3	> 1000	29.0	> 1000	> 1000	37.1	> 1000	41.5	> 1000	37.2	> 1000	17.13	217	529
